Legend:
[1] = test system: BAD S112 phosphorylation in H1299 cells overexpressing PIM-1 (H1299Pim1); test: BAD S112 phosphorylation inhibition assay (in Cell ELISA); type: cell-based; details: Homo sapiens, NCI-H1299, 4 hours, medium without FBS, read-out: BAD PH 1299PIM 1 ELIWO
Procedure: The efficacy of the compounds of the invention on the inhibition of BAD phosphorylation was measured by an in Cell ELISA.
Materials: H1299 cells overexpressing PIM-1 (H1299Pim1). DMSO Plates: 96-well-Polystyrene, Untreated, Round-Bottom plates from Costar (Cat #3797). Cell Plates: 96-Flat bottom biocoated with Poly-D-Lysin plates with lid from Becton Dickinson (Cat #354651). Cell Culture Medium: DMEM high glucose, 10% Fetal Bovine Serum, 2 mM L-Glutamine, P/S. Antibodies: phospho BAD S112 antibody from Cell Signaling (cat. #9291S), anti-rabbit conjugated with peroxidase from Amersham (cat. #3619). Reagent: SuperSignal ELISA femto from Pierce (cat. #1001110).
Procedure: Cells were seeded in 15000 cells per 200 μl per well into 96-well plates and incubated for 16 h at 37° C., 5% CO2. On day two, nine serial 1:2 compound dilutions were made in DMSO in a 96-well plate. The compounds were added to duplicate wells in 96-well cell plates using a FX BECKMAN robot (Beckman Coulter) and were incubated at 37° C. under CO2 atmosphere in medium without fetal bovine serum (FBS). After 4 hours, relative levels of BAD S112 phosphorylation were measured in Cell ELISA using SuperSignal ELISA Femto substrate (Pierce) and read on VICTOR (Perkin Elmer). EC50 values were calculated using ActivityBase from IDBS.

PIM-2 = molecular target: T1, PIM-2 (Homo sapiens, UniProt Q9P1W9); test: Protein PIM kinase assay (ADP Hunter Plus); type: biochemical; details: 100 μM ATP, 100 μM PIMtide
T1 construct: made in house
Procedure: (§1) PIM kinase activities were measured by using the commercial ADP Hunter™ Plus assay (DiscoveRx Ref. #33-016), a homogeneous assay measuring ADP accumulation, as a universal product of kinase activity. PIM-1 and PIM-2 proteins were obtained by purification as it is described by Martinez-Gonzalez et. al. Eur. J. Med Chem. 2019, 168, 87-109 and PIM-3 was acquired from Millipore (Cat #14-738). The assay was done following general manufacturer recommendations and adapting protein and substrates concentrations to optimal conditions. Kinase buffer was 15 mM HEPES, pH 7.4, 20 mM NaCl, 1 mM EGTA, 0.02% Tween-20, 10 mM MgCl2 and 0.1 mg/mL LBGG (bovine y-globulin). All PIM kinases assays were done at 100 μM PIM tide (ARKRRRHPSGPPTA), as peptide substrate, and 100 μM ATP. Protein concentration was 50, 350 and 200 pg/μl for PIM-1, 2 and 3, respectively. In order to calculate the IC50 of described compounds, serial 1:3 dilutions were prepared and the reaction started by addition of ATP. Incubation was done for 1 h at 25° C. Reagents A and B (DiscoveRx) were sequentially added to the wells and plates were incubated for 30 min at 37° C. Fluorescence counts were read in a Victor instrument (Perkin Elmer) with the recommended settings (544 and 580 nm as excitation and emission wavelengths, respectively). Values were plot against inhibitor concentration and fit to a sigmoid dose-response curve using Activity Base software from IDBS.

PIM-3 = molecular target: T2, PIM-3 (Homo sapiens, UniProt Q86V86); test: Protein PIM kinase assay (ADP Hunter Plus); type: biochemical; details: 100 μM ATP, 100 μM PIMtide
T2 construct: purchased Millipore 14-738
Procedure: as §1

PIM-1 = molecular target: T3, PIM-1 (Homo sapiens, UniProt P11309); test: Protein PIM kinase assay (ADP Hunter Plus); type: biochemical; details: 100 μM ATP, 100 μM PIMtide
T3 construct: made in house
Procedure: as §1

OCI-M1 = test: In vitro potency against leukemia cell lines (CellTiter Glo); type: cell-based; details: 72 hours, read-out: absolute IC50 OCI-M1
Procedure: (§2) To prepare the complete medium FBS and appropriate additives were added according to the information sheet provided by the vendor and mixed gently. The cell name and complete medium and passage number marked on the flask were checked, and the culture medium removed and discarded using a vacuum pump. […] 3.0 ml of Trypsin-EDTA solution was added to the flask and the cells observed under an inverted microscope until cell layer is dispersed. 8.0 ml of complete growth medium was added and the cells aspirated by gently pipetting. The cell suspension was transferred to a centrifuge tube and centrifuged at 800-1000 rpm for 3-5 minutes. The supernatant was discarded using a vacuum pump, and an appropriate volume of complete medium added. The cell pellet was suspended by gently pipetting, and the cell numbers counted with Vi-cell XR and the cells adjusted to appropriate density. 100 μL of cell suspension to 96-well opaque-walled clear bottom plates was added according to the planned plate layout and the plates placed in the CO2 incubator overnight.
(§3) c. […] Meanwhile the day 0 plate was measured by Cell TiterGlo as listed below.
(§4) d. Cells were incubated with the compounds for 72 h at 5% CO2, 37° C.
(§5) The plate and its contents were equilibrated to room temperature for approximately 30 minutes, after which 100 μL of CellTiter-Glo reagent was added to the assay plate by Multidrop Combi instrument and the contents mixed for 10 minutes on an orbital shaker to induce cell lysis. The plate was allowed to incubate at room temperature for 10 minutes to stabilize luminescent signal and the clear bottom pasted with white back seal and the luminescence recorded with Enspire with the settings: Luminescence, measurement time 0.1 ms.
(§6) In all cases, the incubation time was 72 hours and the cell lines were grown as a suspension. The seeding density was […] in a 96 well plate.

KG-1 = test: as above; type: cell-based; details: Homo sapiens, 72 hours, read-out: absolute IC50 KG-1
Procedure: as §2, §3, §4, §5, §6

HCC1143 = test: In vitro potency against breast cancer cell lines (CellTiter Glo); type: cell-based; details: Homo sapiens, HCC1143, 72 h; read-out: absolute IC50 HCC1143
Procedure: as §2, §3, §4
(§7) The CellTiter-Glo buffer was thawed and equilibrated to room temperature prior to use. The lyophilized CellTiter-Glo substrate was equilibrated to room temperature prior to use. The appropriate volume of CellTiter-Glo buffer was transferred into the amber bottle containing CellTiter-Glo substrate to reconstitute the lyophilized enzyme/substrate mixture, thereby forming the CellTiter-Glo reagent. Mixing was carried out by gently vortexing, swirling or by inverting the contents to obtain a homogeneous solution, the CellTiter-Glo substrate going into solution easily in less than one minute.
as §5

BT-474 = test: as above; type: cell-based; details: Homo sapiens, BT-474, 72 h; read-out: absolute IC50 BT-474
Procedure: as §2, §3, §4, §7, §5

T-47D = test: as above; type: cell-based; details: Homo sapiens, T47D, 72 h; read-out: absolute IC50 T-47D
Procedure: as §2, §3, §4, §7, §5

U87MG = test: Combination antiproliferation with Example 1; type: cell-based; parameters: key to Synergy: ++++ indicates a very strong synergistic effect; +++ a strong synergistic effect; ++ a synergistic effect; details: agent in combination with Example 1, U87MG, Glioblastoma
Procedure: (§8) The cells were harvested just before reaching confluency, counted with a haemocytometer and diluted with media. Cells were then seeded in 96-well microtiter plates at a density of 4,000 cells/well. Cells were incubated for 24 hours before adding the compounds.
(§9) Compounds were weighed out and diluted with DMSO to a final concentration of 10 mM. From here a “mother plate” with serial dilutions was prepared at 200× the final concentration in the culture. The final concentration of DMSO in the tissue culture media should not exceed 0.5%. The appropriate volume of the compound solution (2 μl) was added automatically (Beckman FX 96 tip) to 0.2 ml media to make it up to the final concentration for each drug.
(§10) Each concentration was assayed in duplicate. Cells were exposed to the compounds for 72 h and then processed for CellTiter-Glo® Luminescent Cell Viability Assay (Promega) read out according to manufacturer's Instruction and read on EnVision (Perkin Elmer). GI50 values were calculated using ActivityBase from IDBS.
(§11) A combination index score was calculated by the Chou and Talalay method (CalcuSyn software, Biosoft).

DU145 = test: Combination antiproliferation with Example 1; type: cell-based; parameters: key to Synergy: ++++ indicates a very strong synergistic effect; +++ a strong synergistic effect; ++ a synergistic effect; details: agent in combination with Example 1, DU145, Prostate Cancer
Procedure: (§12) The cells were harvested just before reaching confluency, counted with a haemocytometer and diluted with media. Cells were then seeded in 96-well microtiter plates at a density of 4,000 cells/well. […] Compounds were weighed out and diluted with DMSO to a final concentration of 10 mM. From here a “mother plate” with serial dilutions was prepared at 200× the final concentration in the culture. The final concentration of DMSO in the tissue culture media should not exceed 0.5%. The appropriate volume of the compound solution (2 μl) was added automatically (Beckman FX 96 tip) to 0.2 ml media to make it up to the final concentration for each drug. Each concentration was assayed in duplicate. Cells were exposed to the compounds for 72 h and then processed for CellTiter-Glo® Luminescent Cell Viability Assay (Promega) read out according to manufacturer's Instruction and read on EnVision (Perkin Elmer). GI50 values were calculated using ActivityBase from IDBS. […] A combination index score was calculated by the Chou and Talalay method (CalcuSyn software, Biosoft). The combination partner compounds were as follows: • the PI3K inhibitor pictisilib (GDC-0941); • the MEK inhibitor merdametinib (PD-0325901); and the EGFR and ErbB2 inhibitor lapatinib

SKMEL19 = test: Combination antiproliferation with Example 1; type: cell-based; parameters: key to Synergy: ++++ indicates a very strong synergistic effect; +++ a strong synergistic effect; ++ a synergistic effect; details: agent in combination with Example 1, SKMEL19, Melanoma
Procedure: as §12

HCT116 = test: Combination antiproliferation with Example 1; type: cell-based; parameters: key to Synergy: ++++ indicates a very strong synergistic effect; +++ a strong synergistic effect; ++ a synergistic effect; details: agent in combination with Example 1, HCT116, Colon Cancer
Procedure: as §8, §9, §10, §11

Jeko-1 = test: Combination antiproliferation with Example 1; type: cell-based; parameters: key to Synergy: ++++ indicates a very strong synergistic effect; +++ a strong synergistic effect; ++ a synergistic effect; details: agent in combination with Example 1, Jeko-1, Mantle Cell Lymphoma
Procedure: as §8, §9, §10, §11

A549 = test: Combination antiproliferation with Example 1; type: cell-based; parameters: key to Synergy: ++++ indicates a very strong synergistic effect; +++ a strong synergistic effect; ++ a synergistic effect; details: agent in combination with Example 1, A549, Lung Cancer
Procedure: as §8, §9, §10, §11

T47D = test: Combination antiproliferation with Example 1; type: cell-based; parameters: key to Synergy: ++++ indicates a very strong synergistic effect; +++ a strong synergistic effect; ++ a synergistic effect; details: agent in combination with Example 1, T47D, Breast Cancer
Procedure: as §8, §9, §10, §11

HT29 = test: Combination antiproliferation with Example 1; type: cell-based; parameters: key to Synergy: ++++ indicates a very strong synergistic effect; +++ a strong synergistic effect; ++ a synergistic effect; details: agent in combination with Example 1, HT29, Colon Cancer
Procedure: as §12

T3 sequence (P11309 whole entry): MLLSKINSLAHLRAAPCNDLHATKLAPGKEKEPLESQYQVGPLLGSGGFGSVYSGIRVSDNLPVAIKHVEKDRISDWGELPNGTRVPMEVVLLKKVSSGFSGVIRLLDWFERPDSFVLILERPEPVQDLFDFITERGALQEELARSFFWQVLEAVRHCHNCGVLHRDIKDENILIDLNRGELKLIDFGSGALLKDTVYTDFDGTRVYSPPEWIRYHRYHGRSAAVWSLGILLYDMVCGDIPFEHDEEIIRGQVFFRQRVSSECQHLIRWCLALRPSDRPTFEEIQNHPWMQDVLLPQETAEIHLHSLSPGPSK
T1 sequence (Q9P1W9 whole entry): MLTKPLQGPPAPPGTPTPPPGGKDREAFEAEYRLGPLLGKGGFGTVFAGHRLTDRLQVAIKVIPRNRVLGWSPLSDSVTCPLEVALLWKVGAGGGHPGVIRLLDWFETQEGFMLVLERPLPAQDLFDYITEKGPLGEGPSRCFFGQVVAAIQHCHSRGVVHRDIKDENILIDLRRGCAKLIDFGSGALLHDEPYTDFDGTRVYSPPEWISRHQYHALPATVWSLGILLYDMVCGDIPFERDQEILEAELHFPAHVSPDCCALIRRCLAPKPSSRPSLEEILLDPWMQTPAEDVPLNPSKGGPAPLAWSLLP

Compound | EC50 [1] [nM] | IC50 (PIM-2) [nM] | IC50 (PIM-3) [nM] | IC50 (PIM-1) [nM] | C.I. (combination index) (DU145) | Synergy (DU145) | C.I. (combination index) (SKMEL19) | Synergy (SKMEL19) | further results
CC1(O)CCC(Nc2nn3c(-c4cccc(OC(F)(F)F)c4)nnc3c3c2CCCO3)CC1 (centres unmarked) [Example 3, 1-Methyl-4-[3-(3-trifluoromethoxy-phenyl)-7,8-dihydro-6H-9-oxa-1,2,3a,4-tetraaza-cyclopenta[a]naphthalen-5-ylamino]-cyclohexanol] | 4.15 | 5 to 10 | 1 to 5 | < 1 |  |  |  |  | 
CN[C@@H]1C[C@H]2O[C@@](C)([C@@H]1OC)n1c3ccccc3c3c4c(c5c6ccccc6n2c5c31)C(=O)NC4 [Staurosporine] |  |  |  |  |  |  |  |  | IC50 (OCI-M1): 48.4 nM; IC50 (KG-1): 23.2 nM; IC50 (HCC1143): 11 nM; IC50 (BT-474): 76.6 nM; IC50 (T-47D): 219 nM
CN1CCOc2c1c(N[C@H]1CC[C@@](C)(O)CC1)nn1c(-c3ccc(F)c(C(F)(F)F)c3)nnc21 [Example 2, 4-[3-(4-Fluoro-3-trifluoromethyl-phenyl)-6-methyl-7,8-dihydro-6H-9-oxa-1,2,3a,4,6-pentaaza-cyclopenta[a]naphthalen-5-ylamino]-1-methyl-cyclohexanol] | 7.11 | 1 to 5 | 1 to 5 | < 1 |  |  |  |  | 
CS(=O)(=O)N1CCN(Cc2cc3nc(-c4cccc5[nH]ncc45)nc(N4CCOCC4)c3s2)CC1 [Pictisilib, pictisilib] |  |  |  |  | 0.24 | +++ | 0.54 | ++ | C.I. (combination index) (U87MG): 0.46; Synergy (U87MG): ++
CS(=O)(=O)CCNCc1ccc(-c2ccc3ncnc(Nc4ccc(OCc5cccc(F)c5)c(Cl)c4)c3c2)o1 [Lapatinib, lapatinib] |  |  |  |  | 0.52 | ++ |  |  | C.I. (combination index) (HCT116): 0.51; Synergy (HCT116): ++; C.I. (combination index) (Jeko-1): 0.70; Synergy (Jeko-1): ++; C.I. (combination index) (A549): 0.47; Synergy (A549): ++; C.I. (combination index) (T47D): 0.27; Synergy (T47D): +++
O=C(NOC[C@H](O)CO)c1ccc(F)c(F)c1Nc1ccc(I)cc1F [Merdametinib, merdametinib] |  |  |  |  | 0.55 | ++ | 0.038 | ++++ | C.I. (combination index) (HT29): 0.62; Synergy (HT29): ++

Source: patent publication US20250042918A1, “COMPOUNDS” (Fundación Del Sector Públlco Estatal Centro Nacional De …, priority 2021, published 2025)
